Values quoted from earlier work in patent publication US20110123445A1, “TREATMENT MONITORING” (priority 2008, published 2011).

Experiments:
phosphorylated ERK = conditions: phase II studies; all tumour types, including melanoma, breast, colon, and lung
MEK = conditions: Swiss 3T3 cells; Alessi et al 1995
ERK phosphorylation = conditions: at the recommended phase II dose; Adjei et al 2008
[1] = phase I trial, 57 cancer patients; Adjei et al 2008
tumour growth = conditions: Sebolt-Leopold et al 1999, 2004

O=C(NOC[C@H](O)CO)c1ccc(F)c(F)c1Nc1ccc(I)cc1F [PD0325901]
phosphorylated ERK suppression in biopsied tumour tissue (phosphorylated ERK): phosphorylated ERK suppression at all dose levels

COc1cccc(-c2cc(=O)c3ccccc3o2)c1N [PD098059]
suppression of MEK activation by a variety of agonists (MEK): 80-90%

Cn1cnc2c(F)c(Nc3ccc(Br)cc3Cl)c(C(=O)NOCCO)cc21 [AZD6244]
inhibition of ERK phosphorylation (ERK phosphorylation): demonstrable inhibition | tolerability [1]: well tolerated

O=C(NOCC1CC1)c1ccc(F)c(F)c1Nc1ccc(I)cc1Cl [PD184352]
inhibition of tumour growth in vivo (tumour growth): inhibit tumour growth in vivo
